From PubChem BioAssay AID256 (DTP/NCI, 2004)
Values joined by “and” are separate entries in the source; they are usually repeats but may differ in a detail not shown here. Equal values may be shown once. Toxic doses and inconclusive results are not listed.

System: CD2F1 mice, L1210 leukemia ip, survival T/C
Experiment: NCI In Vivo Anticancer Drug Screen. Data for tumor model L1210 Leukemia (intraperitoneal) in CD2F1 (CDF1) mice
Settings: higher = longer survival
Method in brief: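 Read-out first: treated-group measurement over vehicle-control measurement, expressed as a ratio. Animals bore a transplanted tumor line and were dosed with compound or vehicle.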

[1] = endpoint: mean survival time, dose: 100.0 mg/kg/injection, schedule: Q01DX009 (ip), vehicle: saline with Tween-80
[2] = endpoint: mean survival time, dose: 200.0 mg/kg/injection, schedule: Q01DX009 (ip), vehicle: saline with Tween-80
[3] = endpoint: mean survival time, dose: 100.0 mg/kg/injection, schedule: Q01DX001 (ip), vehicle: saline
[4] = endpoint: mean survival time, dose: 200.0 mg/kg/injection, schedule: Q01DX001 (ip), vehicle: saline
[5] = endpoint: mean survival time, dose: 400.0 mg/kg/injection, schedule: Q01DX001 (ip), vehicle: saline
[6] = endpoint: mean survival time, dose: 200.0 mg/kg/injection, schedule: Q04DX003 (ip), vehicle: saline
[7] = endpoint: mean survival time, dose: 400.0 mg/kg/injection, schedule: Q04DX003 (ip), vehicle: saline
[8] = endpoint: mean survival time, dose: 100.0 mg/kg/injection, schedule: Q04DX003 (ip), vehicle: saline
[9] = endpoint: mean survival time, dose: 50.0 mg/kg/injection, schedule: Q01DX009 (ip), vehicle: saline with Tween-80

## COc1ccc2c(c1)-c1nn(CCCN(C)C)c3ccc([N+](=O)[O-])c(c13)N2
endpoint: median survival time, dose: 3.12 mg/kg/injection, schedule: Q01DX005 (ip), vehicle: water
  T/C: 152 % of control
endpoint: median survival time, dose: 3.12 mg/kg/injection, schedule: Q01DX009 (ip), vehicle: water
  T/C: 168 % of control
endpoint: median survival time, dose: 6.25 mg/kg/injection, schedule: Q01DX005 (ip), vehicle: water
  T/C: 152 % of control
endpoint: median survival time, dose: 6.25 mg/kg/injection, schedule: Q01DX009 (ip), vehicle: water
  T/C: 216 % of control
endpoint: median survival time, dose: 7.5 mg/kg/injection, schedule: Q01DX005 (ip), vehicle: water
  T/C: 164 % of control
endpoint: median survival time, dose: 12.5 mg/kg/injection, schedule: Q01DX005 (ip), vehicle: water
  T/C: 180 % of control
endpoint: median survival time, dose: 12.5 mg/kg/injection, schedule: Q01DX009 (ip), vehicle: water
  T/C: 113 % of control
endpoint: median survival time, dose: 20.83 mg/kg/injection, schedule: Q01DX005 (ip), vehicle: water
  T/C: 225 % of control
endpoint: median survival time, dose: 25.0 mg/kg/injection, schedule: Q01DX005 (ip), vehicle: water
  T/C: 109 % of control
endpoint: median survival time, dose: 34.72 mg/kg/injection, schedule: Q01DX005 (ip), vehicle: water
  T/C: 107 % of control
endpoint: median survival time, dose: 50.0 mg/kg/injection, schedule: Q01DX005 (ip), vehicle: water
  T/C: 92 % of control and 94 % of control
endpoint: median survival time, dose: 50.0 mg/kg/injection, schedule: Q01DX009 (ip), vehicle: water
  T/C: 116 % of control

## CCOC(=O)C(CO)(NC(C)=O)C(=O)OCC
[1]
  T/C: 94 % of control
[2]
  T/C: 98 % of control
endpoint: mean survival time, dose: 400.0 mg/kg/injection, schedule: Q01DX009 (ip), vehicle: saline with Tween-80
  T/C: 105 % of control

## O=[N+]([O-])c1ccc(/C=N/O)o1
endpoint: mean survival time, dose: 12.5 mg/kg/injection, schedule: Q01DX001 (ip), vehicle: saline
  T/C: 93 % of control and 101 % of control
endpoint: mean survival time, dose: 25.0 mg/kg/injection, schedule: Q01DX001 (ip), vehicle: saline
  T/C: 102 % of control
endpoint: mean survival time, dose: 50.0 mg/kg/injection, schedule: Q01DX001 (ip), vehicle: saline
  T/C: 97 % of control and 102 % of control
[3]
  T/C: 100 % of control and 101 % of control and 102 % of control
endpoint: mean survival time, dose: 150.0 mg/kg/injection, schedule: Q01DX001 (ip), vehicle: saline
  T/C: 100 % of control

## CCN1C(=O)CC(O)C1=O (stereo not given)
[3]
  T/C: 105 % of control
[4]
  T/C: 103 % of control
[5]
  T/C: 103 % of control

## CC1CCC2(C)CCC3(C)C4=CCC5C(C)(C)C(O)CCC5(C)C4CCC3(C)C2C1C (stereo not given)
[6]
  T/C: 89 % of control
[7]
  T/C: 96 % of control

## COc1cc2cc(c1Cl)N(C)C(=O)CC(OC(=O)C(C)N(C)C(=O)C(C)C)C1(C)OC1C(C)C1CC(O)(NC(=O)O1)C(OC)/C=C/C=C(C)C2OC (stereo not given)
endpoint: median survival time, dose: 4.0 micrograms/kg/injection, schedule: Q01DX009 (ip), vehicle: Klucel (hydroxypropylcellulose) (HPC)
  T/C: 104 % of control
endpoint: median survival time, dose: 8.0 micrograms/kg/injection, schedule: Q01DX009 (ip), vehicle: Klucel (hydroxypropylcellulose) (HPC)
  T/C: 112 % of control
endpoint: median survival time, dose: 16.0 micrograms/kg/injection, schedule: Q01DX009 (ip), vehicle: Klucel (hydroxypropylcellulose) (HPC)
  T/C: 112 % of control
endpoint: median survival time, dose: 64.0 micrograms/kg/injection, schedule: Q01DX009 (ip), vehicle: Klucel (hydroxypropylcellulose) (HPC)
  T/C: 105 % of control

## c1ccc2nc3c4ccccc4c4ccccc4c3nc2c1
endpoint: mean survival time, dose: 100.0 mg/kg/injection, schedule: Q04DX002 (ip), vehicle: Klucel (hydroxypropylcellulose) (HPC)
  T/C: 97 % of control
endpoint: mean survival time, dose: 200.0 mg/kg/injection, schedule: Q04DX002 (ip), vehicle: Klucel (hydroxypropylcellulose) (HPC)
  T/C: 97 % of control
endpoint: mean survival time, dose: 400.0 mg/kg/injection, schedule: Q04DX002 (ip), vehicle: Klucel (hydroxypropylcellulose) (HPC)
  T/C: 97 % of control

## O=NN(CCCCCSCCCl)C(=O)NC1CCCCC1
endpoint: mean survival time, dose: 6.25 mg/kg/injection, schedule: Q01DX001 (ip), vehicle: distilled water + Tween-80
  T/C: 101 % of control
endpoint: mean survival time, dose: 12.5 mg/kg/injection, schedule: Q01DX001 (ip), vehicle: distilled water + Tween-80
  T/C: 101 % of control
endpoint: mean survival time, dose: 25.0 mg/kg/injection, schedule: Q01DX001 (ip), vehicle: distilled water + Tween-80
  T/C: 107 % of control
endpoint: mean survival time, dose: 50.0 mg/kg/injection, schedule: Q01DX001 (ip), vehicle: distilled water + Tween-80
  T/C: 104 % of control
endpoint: mean survival time, dose: 100.0 mg/kg/injection, schedule: Q01DX001 (ip), vehicle: distilled water + Tween-80
  T/C: 104 % of control
endpoint: mean survival time, dose: 200.0 mg/kg/injection, schedule: Q01DX001 (ip), vehicle: distilled water + Tween-80
  T/C: 108 % of control
endpoint: mean survival time, dose: 400.0 mg/kg/injection, schedule: Q01DX001 (ip), vehicle: distilled water + Tween-80
  T/C: 118 % of control

## CCN(CC)C(=O)c1ccncc1
[8]
  T/C: 101 % of control
[6]
  T/C: 104 % of control
[7]
  T/C: 101 % of control

## COc1cc(C)c(Cl)[n+]([O-])n1
endpoint: mean survival time, dose: 3.13 mg/kg/injection, schedule: Q04DX002 (ip), vehicle: saline with Tween-80
  T/C: 104 % of control
endpoint: mean survival time, dose: 6.25 mg/kg/injection, schedule: Q04DX002 (ip), vehicle: saline with Tween-80
  T/C: 104 % of control
endpoint: mean survival time, dose: 12.5 mg/kg/injection, schedule: Q04DX002 (ip), vehicle: saline with Tween-80
  T/C: 97 % of control and 104 % of control

## O=C(O)c1cc(-c2ccc(Cl)c(Cl)c2)nc2c(Cl)cc(Cl)cc12
[3]
  T/C: 100 % of control
[4]
  T/C: 100 % of control
[5]
  T/C: 97 % of control

## O=C(c1ccccc1)C1(O)CCCCC1
endpoint: mean survival time, dose: 50.0 mg/kg/injection, schedule: Q01DX009 (ip), vehicle: saline sonified
  T/C: 97 % of control
endpoint: mean survival time, dose: 100.0 mg/kg/injection, schedule: Q01DX009 (ip), vehicle: saline sonified
  T/C: 105 % of control
endpoint: mean survival time, dose: 200.0 mg/kg/injection, schedule: Q01DX009 (ip), vehicle: saline sonified
  T/C: 97 % of control

## CN(C)c1ccc(NC(=S)Nc2ccc(N(C)C)cc2)cc1
endpoint: mean survival time, dose: 25.0 mg/kg/injection, schedule: Q01DX001 (ip), vehicle: saline with Tween-80
  T/C: 97 % of control
endpoint: mean survival time, dose: 50.0 mg/kg/injection, schedule: Q01DX001 (ip), vehicle: saline with Tween-80
  T/C: 102 % of control
endpoint: mean survival time, dose: 100.0 mg/kg/injection, schedule: Q01DX001 (ip), vehicle: saline with Tween-80
  T/C: 94 % of control

## Cc1cc(N(CCCl)CCCl)c(C)cc1NC(=O)c1ccccc1
endpoint: mean survival time, dose: 4.0 mg/kg/injection, schedule: Q01DX009 (ip), vehicle: saline
  T/C: 106 % of control
endpoint: mean survival time, dose: 6.0 mg/kg/injection, schedule: Q01DX009 (ip), vehicle: saline
  T/C: 115 % of control
endpoint: mean survival time, dose: 10.0 mg/kg/injection, schedule: Q01DX009 (ip), vehicle: saline
  T/C: 113 % of control
endpoint: mean survival time, dose: 18.0 mg/kg/injection, schedule: Q01DX009 (ip), vehicle: saline
  T/C: 121 % of control
endpoint: mean survival time, dose: 30.0 mg/kg/injection, schedule: Q01DX009 (ip), vehicle: saline
  T/C: 124 % of control

## O=C(Nc1ccccc1)OCC1CC2C=CC1C2 (stereo not given)
endpoint: mean survival time, dose: 75.0 mg/kg/injection, schedule: Q01DX001 (ip), vehicle: saline with Tween-80
  T/C: 111 % of control
endpoint: mean survival time, dose: 150.0 mg/kg/injection, schedule: Q01DX001 (ip), vehicle: saline with Tween-80
  T/C: 94 % of control
endpoint: mean survival time, dose: 300.0 mg/kg/injection, schedule: Q01DX001 (ip), vehicle: saline with Tween-80
  T/C: 94 % of control

## CCCC(C)C1(CC)NC(C)(C)CC(C)O1 (stereo not given)
endpoint: mean survival time, dose: 100.0 mg/kg/injection, schedule: Q04DX003 (ip), vehicle: saline with Tween-80
  T/C: 103 % of control
endpoint: mean survival time, dose: 200.0 mg/kg/injection, schedule: Q04DX003 (ip), vehicle: saline with Tween-80
  T/C: 87 % of control

## N=c1nc(N)nc(N)n1-c1ccccc1
[9]
  T/C: 98 % of control
[1]
  T/C: 102 % of control
[2]
  T/C: 102 % of control

## CC(C)=CCC/C(C)=C\COC(=N)C(Cl)(Cl)Cl
[9]
  T/C: 88 % of control
[1]
  T/C: 92 % of control
[2]
  T/C: 92 % of control

## Cc1c(Cl)c(Cl)c(NS(=O)(=O)c2ccccc2)c(NS(=O)(=O)c2ccccc2)c1Cl
endpoint: mean survival time, dose: 100.0 mg/kg/injection, schedule: Q04DX003 (ip), vehicle: Klucel (hydroxypropylcellulose) (HPC)
  T/C: 97 % of control
endpoint: mean survival time, dose: 200.0 mg/kg/injection, schedule: Q04DX003 (ip), vehicle: Klucel (hydroxypropylcellulose) (HPC)
  T/C: 104 % of control
endpoint: mean survival time, dose: 400.0 mg/kg/injection, schedule: Q04DX003 (ip), vehicle: Klucel (hydroxypropylcellulose) (HPC)
  T/C: 95 % of control

## COc1cc(NCCCCNC(C)C)c2ncccc2c1
endpoint: mean survival time, dose: 75.0 mg/kg/injection, schedule: Q01DX001 (ip), vehicle: saline
  T/C: 95 % of control

## CCCCCCCCCCCCc1ccc(CSC(C(=O)OC)C(SCc2ccc(CCCCCCCCCCCC)cc2)C(=O)OC)cc1 (stereo not given)
endpoint: mean survival time, dose: 100.0 mg/kg/injection, schedule: Q01DX009 (ip), vehicle: saline
  T/C: 102 % of control
endpoint: mean survival time, dose: 200.0 mg/kg/injection, schedule: Q01DX009 (ip), vehicle: saline
  T/C: 100 % of control
endpoint: mean survival time, dose: 400.0 mg/kg/injection, schedule: Q01DX009 (ip), vehicle: saline
  T/C: 104 % of control

## OCCN=Cc1c(Cl)ccc(Cl)c1Cl
[8]
  T/C: 108 % of control
[6]
  T/C: 101 % of control
[7]
  T/C: 104 % of control
